From ChEMBL document CHEMBL4406808, “Synthesis and assessment of phenylacrylamide derivatives as potential anti-oxidant and anti-inflammatory agents” (Eur J Med Chem, 2019)
pIC50: −log10 of the molar value. Calls of active or inactive are those of the source. The rule behind the calls is not given here.

Tests used:
[1] = system: HBZY-1; assay: Cytoprotection activity against H2O2-induced cell death in rat HBZY-1 cells assessed as cell viability at 6 uM preincubated with compound for 2 hrs followed by H2O2 addition and measured after 24 hrs by MTT assay (reference value: 62.1%); type: functional; details: read-out: Activity
[2] = system: HBZY-1; assay: Cytotoxicity against rat HBZY-1 cells assessed as reduction in cell viability after 2 hrs by MTT assay; type: cell-based; details: HBZY-1, 2 h
[3] = target: Kelch-like ECH-associated protein 1 (Rattus norvegicus) (UniProt P57790); assay: Binding affinity to Keap1 in rat HBZY-1 cells assessed as induction of Keap1/Nrf2 signaling by measuring increase in GCLM protein expression by Western blot analysis; type: cell-based
[4] = target: Kelch-like ECH-associated protein 1 (Rattus norvegicus) (UniProt P57790); assay: Binding affinity to Keap1 in rat HBZY-1 cells assessed as induction of Keap1/Nrf2 signaling by measuring increase in GCLC mRNA expression at 6 uM by RT-PCR analysis; type: cell-based
[5] = target: Kelch-like ECH-associated protein 1 (Rattus norvegicus) (UniProt P57790); assay: Binding affinity to Keap1 in rat HBZY-1 cells assessed as induction of Keap1/Nrf2 signaling by measuring increase in NQO-1 mRNA expression at 6 uM by RT-PCR analysis; type: cell-based
[6] = target: Kelch-like ECH-associated protein 1 (Rattus norvegicus) (UniProt P57790); assay: Binding affinity to Keap1 in rat HBZY-1 cells assessed as induction of Keap1/Nrf2 signaling by measuring increase in GCLC protein expression by Western blot analysis; type: cell-based
[7] = target: Kelch-like ECH-associated protein 1 (Rattus norvegicus) (UniProt P57790); assay: Binding affinity to Keap1 in rat HBZY-1 cells assessed as induction of Keap1/Nrf2 signaling by measuring increase in HO-1 protein expression by Western blot analysis; type: cell-based
[8] = target: Kelch-like ECH-associated protein 1 (Rattus norvegicus) (UniProt P57790); assay: Binding affinity to Keap1 in rat HBZY-1 cells assessed as induction of Keap1/Nrf2 signaling by measuring increase in GCLM mRNA expression at 6 uM by RT-PCR analysis; type: cell-based
[9] = target: Kelch-like ECH-associated protein 1 (Rattus norvegicus) (UniProt P57790); assay: Binding affinity to Keap1 in rat HBZY-1 cells assessed as induction of Nrf2 nuclear translocation by measuring increase in ratio of nuclear to cytosolic Nrf2 level by Western blot analysis; type: cell-based
[10] = target: Kelch-like ECH-associated protein 1 (Rattus norvegicus) (UniProt P57790); assay: Binding affinity to Keap1 in rat HBZY-1 cells assessed as induction of Keap1/Nrf2 signaling by measuring increase in HO-1 mRNA expression at 6 uM by RT-PCR analysis; type: cell-based
[11] = target: Kelch-like ECH-associated protein 1 (Rattus norvegicus) (UniProt P57790); assay: Binding affinity to Keap1 in rat HBZY-1 cells assessed as induction of Keap1/Nrf2 signaling by measuring increase in NQO-1 protein expression by Western blot analysis; type: cell-based

Sequence of Kelch-like ECH-associated protein 1 (Rattus norvegicus) (P57790 whole entry): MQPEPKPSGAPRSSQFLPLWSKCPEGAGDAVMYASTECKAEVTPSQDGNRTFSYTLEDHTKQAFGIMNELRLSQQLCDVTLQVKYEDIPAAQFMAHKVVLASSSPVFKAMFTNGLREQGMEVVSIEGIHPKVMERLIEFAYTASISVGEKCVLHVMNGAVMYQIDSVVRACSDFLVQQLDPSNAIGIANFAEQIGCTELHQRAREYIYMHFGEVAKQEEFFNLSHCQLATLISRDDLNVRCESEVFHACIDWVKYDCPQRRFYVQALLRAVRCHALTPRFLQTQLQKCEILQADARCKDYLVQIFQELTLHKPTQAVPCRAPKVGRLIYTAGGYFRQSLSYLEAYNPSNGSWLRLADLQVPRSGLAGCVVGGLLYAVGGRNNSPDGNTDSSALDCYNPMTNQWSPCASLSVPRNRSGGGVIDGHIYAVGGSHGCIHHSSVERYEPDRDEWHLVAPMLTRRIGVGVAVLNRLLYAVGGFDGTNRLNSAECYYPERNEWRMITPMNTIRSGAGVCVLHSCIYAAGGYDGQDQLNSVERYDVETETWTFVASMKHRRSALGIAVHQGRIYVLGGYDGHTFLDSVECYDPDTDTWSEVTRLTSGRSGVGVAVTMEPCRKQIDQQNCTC

Compound	viability at 6 µM [1]	pIC50 [2]	further results
COc1ccccc1NC(=O)/C(C#N)=C/c1ccccc1C	65.6 to 96.4%	< 3.70	
N#C/C(=C\c1ccccc1C(F)(F)F)C(=O)Nc1ccc(F)c(Cl)c1	80.4%	< 3.70	
O=C(/C=C/c1ccccc1C(F)(F)F)Nc1ccc(F)c(Cl)c1	65.6 to 96.4%	< 3.70	
COc1ccc(NC(=O)/C(C#N)=C/c2ccccc2C(F)(F)F)cc1OC	78.2%	< 3.70	
COc1ccccc1NC(=O)/C(C#N)=C/c1cccc([N+](=O)[O-])c1	65.6 to 96.4%	< 3.70	
COc1cc(NC(=O)/C(C#N)=C/c2ccccc2C(F)(F)F)cc(OC)c1OC	65.6 to 96.4%	< 3.70	
COc1ccccc1NC(=O)/C(C#N)=C/c1cc(OC)c(OC)c(OC)c1	78.1%	< 3.70	
COc1ccccc1NC(=O)/C(C#N)=C/c1ccc(OC)c(OC)c1	78.4%	< 3.70	
COc1ccc(NC(=O)/C=C/c2ccccc2C(F)(F)F)cc1OC	65.6 to 96.4%	< 3.70	
Oc1ccc(/C=C/c2cc(O)cc(O)c2)cc1 [RESVERATROL]	76.8%		Activity [3]: Active; Activity [4]: Active; Activity [5]: Active; Activity [6]: Active; Activity [7]: Active; Activity [8]: Active; Activity [9]: Active; Activity [10]: Active; Activity [11]: Active
COc1ccc(CCNC(=O)/C=C/c2ccccc2C(F)(F)F)cc1OC	65.6 to 96.4%	< 3.70	
COc1ccc(CNC(=O)/C(C#N)=C/c2ccccc2C(F)(F)F)cc1	80.8%	< 3.70	
COc1ccc(CNC(=O)/C=C/c2ccccc2C(F)(F)F)cc1	65.6 to 96.4%	< 3.70	
